Here are results for two compounds from patent US11684621B2, “Combination containing sGC stimulators and mineralocorticoid receptor antagonists” (Bayer Pharma Aktiengesellschaft, priority 2016, dated 2023).

The test system of the assay is L-NAME-treated renin transgenic rats (TGR(mRen2)27). The assay is described as follows: L-NAME-treated transgenic renin rat (TGR(mRen2)27): mortality and proteinuria. Format: in vivo. The following applies: finerenone 10 mg/kg od, compound of the formula (X) 0.3 mg/kg od, alone or combined; for All-cause mortality during the study period / Survival rate over the study period: L-NAME-treated TGR(mRen2)27 renin rats, daily gavage; for All-cause mortality during the study period: 15 animals per group, placebo mortality 40%; for Survival rate over the study period: study terminated after 40% of placebo animals had died; for Reduction of proteinuria, measured as protein/creatinine quotient in urine / Protein/creatine quotient - % of group A (proteinuria in % reduction from placebo): L-NAME-treated renin transgenic rats; for Reduction of proteinuria, measured as protein/creatinine quotient in urine: versus placebo; for Protein/creatine quotient - % of group A (proteinuria in % reduction from placebo): urine, end of the study, mean ± SEM, relative to placebo group A. From the text: 3.) L-NAME-treated transgenic renin rat (TGR(mRen2)27)
The transgenic renin rat ‘TGR(mRen2)27’ is a hypertensive rat line developed by Mullins and Ganten which overexpresses the Ren-2 gene of the mouse. Additional administration of the nitrogen monoxide synthase inhibitor L-NAME induces endothelial dysfunction which increases morbidity and mortality in this model. Unless subjected to life-long antihypertensive therapy, homozygous animals die of secondary complications such as heart and kidney failure or stroke.
Male TGR(mRen2)27 renin rats aged 10 to 20 weeks are randomized to different pharmacological treatment groups and a placebo group. In addition, the nitrogen monoxide synthase inhibitor L-NAME is administered via the drinking water in a concentration of 30 to 100 mg/l. During the entire experiment, drinking water and feed are available ad libitum to the animals. The substances are administered via the feed or daily by gavage for 4-10 weeks. Animals treated in the same way but receiving either only the solvent or the feed without test substance serve as placebo group. During the experiment, the systolic blood pressure is determined at regular intervals using a tail cuff, and proteinuria and urine electrolyte composition are determined by collecting the urine in metabolic cages. At the end of the experiment, haemodynamic parameters (blood pressure, heart rate, inotropism [dp/dt], relaxation time [tau], maximum left ventricular pressure, left ventricular end-diastolic pressure [LVEDP]) are measured, and the weights of heart, kidney and lung are determined, protein elimination and biomarkers (e.g. ANP, RIA Kit RK 005-24, Phoenix Pharmaceuticals, Inc., USA, cGMP, RIA Kit RE29075, IBL International GmbH, Hamburg, Germany, renin, angiotensin I, RIA Kit CA-1533, DiaSorin S.p.A., Italy, and aldosterone, P2714, DiaSorin S.p.A., Italy) and gene expression of biomarkers by RT/TaqMan PCR following RNA isolation from cardiac and renal tissue are determined.
Cardiac and cardiovascular disorders as well as renal and cardiorenal disorders are characterized by high patient morbidity and also high mortality. This morbidity and mortality, together with various risk factors such as hypertension, can be reproduced very accurately in the above-described animal model of the L-NAME-treated renin transgenic rat. Therefore, this animal model, for example, was used to investigate MR antagonists such as, for example, finerenone according to the compound of the formula (IV) and sGC stimulators such as, for example, the compound of the formula (X), and combinations of both: […]
For example, the MR antagonist finerenone, corresponding to the compound of the formula (IV), and the sGC stimulator, corresponding to the compound of the formula (X), were tested on their own and in combinations in TGR(mRen2)27 renin rats aged 10 to 20 weeks. In addition, the nitrogen monoxide synthase inhibitor L-NAME was administered via the drinking water in a concentration of 30 to 100 mg/l. During the entire experiment, drinking water and feed were available ad libitum to the animals. The substances were administered daily by gavage for 4-10 weeks. Animals treated in the same way but receiving only the solvent for the test substance served as placebo group. In the test series, in addition to placebo (group A), the MR antagonist finerenone corresponding to the compound of the formula (IV) (10 mg/kg od) (group B) and the sGC stimulator corresponding to the compound of the formula (X) (0.3 mg/kg od) (group C) on their own and a combination of finerenone corresponding to the compound of the formula (IV) (10 mg/kg od)+compound of the formula (X) (0.3 mg/kg od) (group D) were administered. In this study, 15 animals were used per group (A, B, C, D) (Table 1): […]

SMILES strings stand for the structures.

Regarding `COC(=O)Nc1c(N)nc(-c2nn(Cc3ccccc3F)c3ncc(F)cc23)nc1N` [compound of the formula (X), methyl {4,6-diamino-2-[5-fluoro-1-(2-fluorobenzyl)-1H-pyrazolo[3,4-b]pyridin-3-yl]pyrimidin-5-yl}carbamate], the “All-cause mortality during the study period” value came out at 13%; the “Survival rate over the study period” value is reported as 87%; the “Reduction of proteinuria, measured as protein/creatinine quotient in urine” value is 51%; the “Protein/creatine quotient - % of group A (proteinuria in % reduction from placebo)” value was −51 + 20%.

As for `CCOc1ncc(C)c2c1[C@H](c1ccc(C#N)cc1OC)C(C(N)=O)=C(C)N2` [finerenone, (S)-4-(4-cyano-2-methoxyphenyl)-5-ethoxy-2,8-dimethyl-1,4-dihydro-1,6-naphthyridine-3-carboxamide], the “All-cause mortality during the study period” value is on record as 20%; the “Survival rate over the study period” value is 80%; the “Reduction of proteinuria, measured as protein/creatinine quotient in urine” value came to 58%; the “Protein/creatine quotient - % of group A (proteinuria in % reduction from placebo)” value is −58 + 16%.
